Assay type in all cases: cell-based
For series [1], the system named is Bacillus cereus ATCC 10876. Kind of series: Broth microdilution antimicrobial activity. The text has this: (§1) Reference strains of microorganisms that came from American Type Culture Collection (ATCC) (Manassas, VA, USA) were used for this study. The representative Gram-positive bacteria were as follows: Staphylococcus aureus ATCC 25923, Staphylococcus aureus ATCC 29213, Staphylococcus aureus ATCC 43300, Staphylococcus epidermidis ATCC 12228, Enterococcus faecalis ATCC 29212, Micrococcus luteus ATCC 10240, Bacillus subtilis ATCC 6633 and Bacillus cereus ATCC 10876. While, those of Gram-negative bacteria were as follows: Bordetella bronchiseptica ATCC 4617, Escherichia coli ATCC 25922, Klebsiella pneumoniae ATCC 13883, Proteus mirabilis ATCC 12453, Salmonella Typhimurium ATCC 14028 and Pseudomonas aeruginosa ATCC 9027. Moreover, the following fungi belonging to yeasts were used: Candida albicans ATCC 10231, Candida albicans ATCC 2091, Candida parapsilosis ATCC 22019, Candida glabrata ATCC 90030 and Candida krusei ATCC 14243.
(§2) The new compounds WZ1–WZ4 were assayed for both antibacterial and antifungal activity using the broth microdilution method in accordance with the European Committee on Antimicrobial Susceptibility Testing (EUCAST) and Clinical and Laboratory Standards Institute (CLSI) guidelines. The microorganisms were grown at 35 °C for 18–24 h on appropriate media (nutrient agar and Sabouraud for bacteria and fungi, respectively) (BioMaxima S.A., Lublin, Poland). Next, microbial suspensions with an optical density of 0.5 McFarland standard scale (in sterile 0.85% NaCl) were prepared. In turn, the tested compounds were initially diluted at 50 mg/mL in dimethyl sulfoxide (DMSO) and the broth microdilution method was used to assess their minimum inhibitory concentrations (MICs). For these studies, selective broth Mueller-Hinton (MH) (BioMaxima S.A., Lublin, Poland) and RPMI (Roswell Park Memorial Institute) 1640 with MOPS (3-(N-Morpholino)propanesulfonic acid) (Sigma-Aldrich Chemicals, St. Louis, MO, USA) were used for bacteria and fungi, respectively. The antimicrobial effect of compounds WZ1–WZ4 was determined in the concentration range from 2000 to 0.98 µg/mL.
(§3) Then, the microbial suspensions were introduced into each well of the microplate and incubated for 18–24 h at 35 °C. […] The reference drugs ciprofloxacin or vancomycin (against bacteria) and nystatin (against fungi) (Sigma-Aldrich Chemicals, St. Louis, MO, USA) were also used. Next, the values of the minimum bactericidal concentration (MBC) and minimum fungicidal concentration (MFC) of WZ1–WZ4 were assessed. For this purpose, the cultures from each MIC determination well were transferred to a suitable solid medium and incubated under appropriate conditions. The lowest concentrations of compounds without microbial growth were read as MBC or MFC. The studies were performed in triplicate and representative data were gathered.
(§4) In turn, the MBC/MIC or MFC/MIC ratios were used to assess bactericidal/fungicidal (MBC/MIC or MFC/MIC ≤ 4) and bacteriostatic/fungistatic (MBC/MIC or MFC/MIC > 4) effect of these compounds [93].

Series [2] has as its system Bacillus subtilis ATCC 6633. Kind of series: Broth microdilution antimicrobial activity.
Excerpt: as §1, §2, §3, §4

Series [3] has as its system Bordetella bronchiseptica ATCC 4617. The series can be described thus: Broth microdilution antimicrobial activity.
Excerpt: as §1, §2, §3, §4
For orientation: Broth dilution looks for growth in wells or tubes with falling amounts of substance.

Series [4] deals with Escherichia coli ATCC 25922. Kind of series: Broth microdilution antimicrobial activity.
Excerpt: as §1, §2, §3, §4

The subject of series [5] is Klebsiella pneumoniae ATCC 13883. The series can be described thus: Broth microdilution antimicrobial activity.
Excerpt: as §1, §2, §3, §4

Series [6] relates to Micrococcus luteus ATCC 10240. Kind of series: Broth microdilution antimicrobial activity.
Excerpt: as §1, §2, §3, §4

The subject of series [7] is Proteus mirabilis ATCC 12453. Kind of series: Broth microdilution antimicrobial activity.
Excerpt: as §1, §2, §3, §4

The test system of series [8] is Pseudomonas aeruginosa ATCC 9027. Kind of series: Broth microdilution antimicrobial activity.
Excerpt: as §1, §2, §3, §4

The test system of series [9] is Salmonella Typhimurium ATCC 14028. Kind of series: Broth microdilution antimicrobial activity.
Excerpt: as §1, §2, §3, §4

In series [10] the test system is Staphylococcus aureus ATCC 25923. Kind of series: Broth microdilution antimicrobial activity.
Excerpt: as §1, §2, §3, §4

The test system of series [11] is Staphylococcus aureus ATCC 29213. Kind of series: Broth microdilution antimicrobial activity. Particulars: Staphylococcus aureus ATCC 29213.
Excerpt: as §1, §2, §3, §4

The subject of series [12] is Staphylococcus aureus ATCC 43300. Kind of series: Broth microdilution antimicrobial activity. Conditions: Staphylococcus aureus ATCC 43300.
Excerpt: as §1, §2, §3, §4

The subject of series [13] is Staphylococcus epidermidis ATCC 12228. Kind of series: Broth microdilution antimicrobial activity.
Excerpt: as §1, §2, §3, §4

Series [14] relates to Candida albicans ATCC 10231. The series can be described thus: Broth microdilution antimicrobial activity.
Excerpt: as §1, §2, §3, §4

Series [15] deals with Candida albicans ATCC 2091. The series can be described thus: Broth microdilution antimicrobial activity.
Excerpt: as §1, §2, §3, §4

Series [16] deals with Candida glabrata ATCC 90030. The series can be described thus: Broth microdilution antimicrobial activity.
Excerpt: as §1, §2, §3, §4

In series [17] the test system is Candida krusei ATCC 14243. Kind of series: Broth microdilution antimicrobial activity.
Excerpt: as §1, §2, §3, §4

For series [18], the system named is Candida parapsilosis ATCC 22019. Kind of series: Broth microdilution antimicrobial activity.
Excerpt: as §1, §2, §3, §4

Series [19] concerns Enterococcus faecalis ATCC 29212. The series can be described thus: Broth microdilution antimicrobial activity. Particulars: Enterococcus faecalis ATCC 29212.
Excerpt: as §1, §2, §3, §4

In series [20] the test system is Erythrocytes from fresh sheep blood. The series can be described thus: in vitro. As to the method: The toxicity of WZ1–WZ4 compounds towards red blood cells was tested using the erythrocyte lysis assay (ELA). Erythrocytes from fresh sheep blood (BioMaxima S.A., Poland) were centrifuged and washed with 0.85% NaCl. Next, 100 μL of a 2% suspension of red blood cells in physiological saline was added to the wells of microtiter plate. The double dilutions of compounds WZ1–WZ4 were prepared in the range of 2000–15.62 μg/mL. Appropriate controls were used to assess the hemolytic potential of tested compounds, i.e., 100% lysis of erythrocytes using 4% Triton X-100 (Pol-Aura, Różnowo, Poland) and 0% lysis in saline solution. Next, all sample plates were incubated (1 h at 37 °C), centrifuged for 10 min to separate unlysed red blood cells, and the supernatant was placed in a new plate. The ELA is a biological test by which the lytic response can be measured spectrophotometrically (at a wavelength of 450 nm) by the amount of hemoglobin released. The hemolysis percentage was calculated according to the following equation:(1) % Hemolysis = A450 of test compound treated sample − A450 of buffer treated sample/A450 of 4% Triton X100 treated samples − A450 of buffer treated sample × 100

From PMC10747733, “N-Substituted 2-(Benzenosulfonyl)-1-Carbotioamide Derivatives Exert Antimicrobial and Cytotoxic Effects via Aldehyde Dehydrogenase Pathway: Synthesis, In Silico and In Vitro Studies” (Pharmaceuticals, 2023) come the findings set out here.

As usually defined, the MBC is the smallest concentration meeting the test's criterion for killing. A low value points to more potent killing. As usually defined, the MIC is the lowest concentration that inhibits growth of the organism. Read a low MIC as inhibition by little substance. As a reminder, the MFC is the lowest tested concentration that kills the fungus rather than only halting it.

In brackets after ≈: the same amount, converted by molar mass.

For `O=C(O)c1cn(C2CC2)c2cc(N3CCNCC3)c(F)cc2c1=O` [CIP, ciprofloxacin, reference compound], the MBC/MIC in [1] is listed as 2; in [2], 1; in series [3] it was 1; in [4], 2; in [5], 2; in series [6] it was 2. Also, the MBC/MIC in [7] was found to be 1; in series [8] it was 2; in [9] it was 1; in series [10] it was 1; in series [11], 1; in [12], 1. The MBC/MIC in series [13] amounted to 1. Also, the MBC was 0.12 µg/mL (≈ 0.362 µM) in [1] (ATCC10876); 0.03 µg/mL (≈ 0.0905 µM) in [2] (ATCC6633); 0.98 µg/mL (≈ 2.96 µM) in series [3] (ATCC4617); 0.008 µg/mL (≈ 0.0241 µM) in series [4] (ATCC25922); 0.24 µg/mL (≈ 0.724 µM) in series [5] (ATCC13883); 1.95 µg/mL (≈ 5.89 µM) in [6] (ATCC10240). In addition, the MBC in [7] (ATCC12453) was found to be 0.03 µg/mL (≈ 0.0905 µM); in series [8] (ATCC9027), 0.98 µg/mL (≈ 2.96 µM); in series [9] (Salmonella enterica), 0.06 µg/mL (≈ 0.181 µM); in series [10] (ATCC25923), 0.48 µg/mL (≈ 1.45 µM); in series [11] (ATCC29213), 0.48 µg/mL (≈ 1.45 µM); in [12] (ATCC43300), 0.24 µg/mL (≈ 0.724 µM). The compound further gave an MBC in series [13] (ATCC12228) of 0.12 µg/mL (≈ 0.362 µM). Also, the MIC in series [1] (ATCC10876) amounted to 0.06 µg/mL (≈ 0.181 µM); in series [2] (ATCC6633), 0.03 µg/mL (≈ 0.0905 µM); in series [3] (ATCC4617) it was 0.98 µg/mL (≈ 2.96 µM); in [4] (ATCC25922), 0.004 µg/mL (≈ 0.0121 µM); in series [5] (ATCC13883), 0.12 µg/mL (≈ 0.362 µM); in [6] (ATCC10240), 0.98 µg/mL (≈ 2.96 µM). The MIC in series [7] (ATCC12453) worked out at 0.03 µg/mL (≈ 0.0905 µM); in series [8] (ATCC9027) it was 0.48 µg/mL (≈ 1.45 µM); in series [9] (Salmonella enterica) it was 0.06 µg/mL (≈ 0.181 µM); in series [10] (ATCC25923), 0.48 µg/mL (≈ 1.45 µM); in [11] (ATCC29213), 0.48 µg/mL (≈ 1.45 µM); in [12] (ATCC43300), 0.24 µg/mL (≈ 0.724 µM). In series [13] (ATCC12228), the minimum inhibitory concentration (MIC) came to 0.12 µg/mL (≈ 0.362 µM).
Consider `C[C@@H]1[C@H](O)[C@@H](C)/C=C/C=C/CC/C=C/C=C/C=C/C=C/C(O[C@H]2O[C@H](C)[C@@H](O)[C@H](N)[C@@H]2O)CC2O[C@](O)(CC(O)C(O)CCC(O)CC(O)CC(O)CC(=O)O[C@H]1C)CC(O)C2C(=O)O` (stereo partly shown) [NY, nystatin, reference compound], for which the MFC in series [14] was determined as 0.48 µg/mL (≈ 0.518 µM); in series [15] it was 0.24 µg/mL (≈ 0.259 µM); in series [16], 0.48 µg/mL (≈ 0.518 µM); in [17], 0.24 µg/mL (≈ 0.259 µM); in [18], 0.48 µg/mL (≈ 0.518 µM). Moreover, the MFC/MIC turned out to be 1 in series [14]; 1 in series [15]; 2 in series [16]; 1 in [17]; 2 in series [18]. The MIC in series [14] was 0.48 µg/mL (≈ 0.518 µM); in series [15], 0.24 µg/mL (≈ 0.259 µM); in [16], 0.24 µg/mL (≈ 0.259 µM); in series [17] it was 0.24 µg/mL (≈ 0.259 µM); in series [18], 0.24 µg/mL (≈ 0.259 µM).
In series [19], `CN[C@H](CC(C)C)C(=O)N[C@H]1C(=O)N[C@@H](CC(N)=O)C(=O)N[C@H]2C(=O)N[C@H]3C(=O)N[C@H](C(=O)N[C@H](C(=O)O)c4cc(O)cc(O)c4-c4cc3ccc4O)[C@H](O)c3ccc(c(Cl)c3)Oc3cc2cc(c3O[C@@H]2O[C@H](CO)[C@@H](O)[C@H](O)[C@H]2O[C@H]2C[C@](C)(N)[C@H](O)[C@H](C)O2)Oc2ccc(cc2Cl)[C@H]1O` [VA, vancomycin, reference compound] had an MBC of 1.95 µg/mL (≈ 1.35 µM), an MBC/MIC of 2 and an MIC of 0.98 µg/mL (≈ 0.676 µM).
As to Triton X-100 [reference compound], in [20], the erythrocyte lysis was found to be 100%.
